Laboratory results: the supplement of paper PMC10307832

What was measured:
Experiment in all cases: relative viability (nuclei count vs DMSO), 5 days (fraction); higher = more cells survive
[1] = compound: C=CCc1cccc(/C=N/NC(=O)CN2CCN(Cc3ccccc3)CC2)c1O [PAC-1] + O=C(CCCCCCC(=O)Nc1ccccc1)NO [Vorinostat] (partner 1 µM)
How it was run: (§1)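 Lung cancer cell lines were seeded in 1536-well plates and dosed by pin tool the next day, with either a single drug or a fixed anchor-drug dose combined with five library-drug doses (not always all listed) spaced in √10 steps. Five days later, one step fixed the cells and stained their nuclei (final 0.05% Triton X-100, 1% formaldehyde, 1 ug/ml Hoechst), and nuclei were counted on 4× images. Relative viability is the nuclei count in treated wells divided by the count in vehicle wells, and each value is the median of duplicate plates.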

[2] = compound: C=CC(=O)N1CCC[C@@H](n2nc(-c3ccc(Oc4ccccc4)cc3)c3c(N)ncnc32)C1 [Ibrutinib] + O=C(CCCCCCC(=O)Nc1ccccc1)NO [Vorinostat] (partner 1 µM)
How it was run: as §1

[3] = compound: C=CC(=O)Nc1cc(-n2c(=O)ccc3cnc4ccc(-c5ccc(NS(C)(=O)=O)cc5)cc4c32)ccc1C [BMX-IN-1] + O=C(CCCCCCC(=O)Nc1ccccc1)NO [Vorinostat] (partner 1 µM)
How it was run: as §1

[4] = compound: C=CCc1cccc(/C=N/NC(=O)CN2CCN(Cc3ccccc3)CC2)c1O [PAC-1] + O=C(c1cc(Cc2n[nH]c(=O)c3ccccc23)ccc1F)N1CCN(C(=O)C2CC2)CC1 [Olaparib] (partner 8 µM)
How it was run: as §1

Cell Line	relative viability ([1]; first compound 0.02 µM)	relative viability ([1]; first compound 0.06325 µM)	relative viability ([1]; first compound 0.2 µM)	relative viability ([1]; first compound 2 µM)	relative viability ([2]; first compound 0.005 µM)	relative viability ([2]; first compound 0.01581 µM)	relative viability ([2]; first compound 0.05 µM)	relative viability ([2]; first compound 0.1581 µM)	relative viability ([2]; first compound 0.5 µM)	relative viability ([3]; first compound 0.02 µM)	relative viability ([3]; first compound 0.2 µM)	relative viability ([3]; first compound 0.6325 µM)	relative viability ([3]; first compound 2 µM)	relative viability ([4]; first compound 0.02 µM)	relative viability ([4]; first compound 0.06325 µM)	relative viability ([4]; first compound 0.2 µM)	relative viability ([4]; first compound 2 µM)
NCI-H661	0.786	0.784	0.743	0.676	0.746	0.761	0.752	0.758	0.752	0.878	0.877	0.857	0.743	0.664	0.721	0.684	0.505
NCI-H727	1.09	1.1	1.06	1.13	1.11	1.18	1.26	0.808	1.12	1.11	1.3	1.29	1.2	0.753	0.715	0.568	0.68
NCI-H838	0.68	0.72	0.782	0.745	0.786	0.688	0.762	0.77	0.717	0.827	0.64	0.728	0.73	0.715	0.735	0.727	0.656
NCI-H1355	0.61	0.625	0.572	0.665		0.626		0.688	0.549	0.705	0.706	0.697	0.76	0.78	0.693	0.724	0.74
NCI-H1395	0.704	0.747	0.784	0.623	0.529	0.79	0.642	0.516	0.798	0.764	0.708	0.942	0.746	0.493	0.44	0.485	0.46
NCI-H1437	0.831	0.816	0.717	0.563	0.865	0.919	0.908	0.854	1.02	0.964	0.866	0.896	0.949	0.606	0.632	0.555	0.471
NCI-H1648	0.49	0.42	0.431	0.463	0.423	0.441	0.402	0.31	0.343	0.522	1	0.3	0.503	0.573	0.646	0.889	0.832
NCI-H1650	0.507	0.672	0.52	0.418	0.579	0.589	0.422	0.71	0.535	0.501	0.452	0.571	0.522	0.709	0.751	0.726	0.674
NCI-H1651	0.544	0.531	0.489	0.588	0.492	0.629	0.524	0.577	0.574	0.481	0.585	0.604	0.552	0.149	0.2	0.181	0.193
NCI-H1666	1.08	1.03	1	1.09	0.939	1.05	1.07	1.12	0.863	1.03	1.05	1.13	1.15	0.688	0.745	0.75	0.729
NCI-H1734	0.825	0.792	0.767	0.895	0.74	0.789	0.781	0.92	0.772	0.81	0.927	0.866	0.902	0.655	0.611	0.271	0.632
NCI-H1755	0.777	0.787	0.774	0.718	0.739	0.841	0.659	0.824	0.751	0.72	0.849	0.812	0.8	0.879	0.837	0.849	0.826
NCI-H1793	0.653	0.814	0.741	0.894	0.405	0.643	0.47	0.518	0.367	0.998	0.563	0.856	0.849	0.682	0.855	0.7	0.628
NCI-H1915	0.507	0.506	0.427	0.562	0.453	0.484	0.438	0.678	0.494	0.576	0.531	0.564	0.53	0.234	0.262	0.22	0.274
NCI-H1944	0.537	0.555	0.542	0.642	0.551	0.47	0.517	0.47	0.467	0.519	0.659	0.598	0.578	0.389	0.434	0.425	0.402
NCI-H1975	0.71	0.713	0.765	0.77	0.759	0.556	0.649	0.792	0.324	0.707	0.754	0.737	0.703	0.779	0.809	0.811	0.703
NCI-H1993	0.821	0.895	0.658	0.652	0.443	0.759	1.13	1.01	0.486	0.767	0.9	0.85	0.898	1.12	1.16	0.684	0.961
